Assay results from patent US20240207297A1 (priority 2021, published 2024).
Values after ≈ are worked out from the molar mass of the structure shown.

How the values were obtained:
[1] = tested on: SARS-CoV-2 (COVID-19 disease); assay: Treatment of SARS-CoV-2 positive patients with oral Nystatin tablets
SARS-CoV = conditions: cited from earlier work
VERO E6 cell line = conditions: Tables 1, 2 and FIGS. 3A, 3B
[2] = tested on: SARS-CoV-2 early Wuhan strain (CMC-1); assay: microbe, parasite or virus in culture; format: cell-based

In the case of `C[C@@H]1[C@H](O)[C@@H](C)/C=C/C=C/CC/C=C/C=C/C=C/C=C/[C@H](OC2O[C@@H](C)[C@H](O)[C@@H](N)[C@H]2O)C[C@@H]2OC(O)(C[C@@H](O)[C@H](O)CC[C@@H](O)C[C@@H](O)C[C@@H](O)CC(=O)O[C@H]1C)C[C@H](O)[C@H]2C(=O)O` (some centres unmarked) [Nystatin, nystatin], the “course of complaints under treatment” value ([1]; Patient 1, 3×2 Nystatin tablets (500,000 IU) per day for 10 days) is reported as “complaints steadily decreased and disappeared after 10 days”, the “course of complaints under treatment” value ([1]; Patient 2, 3×2 Nystatin tablets (500,000 IU) per day for 15 days) is reported as “free of complaints” and the “course of complaints under treatment” value ([1]; Patient 3, 3×2 Nystatin tablets (500,000 IU) per day for 15 days) is reported as “free of complaints”. The body temperature ([1]; Patient 4, 9 Apr. 2021 (day 9), one day after start of Nystatin, before 39-39.8° C.) was 37.5 °C, the body temperature ([1]; Patient 4, 10 Apr. 2021 (day 10)) was 36.9 °C and the body temperature ([1]; Patient 4, 11 Apr. 2021 (day 11)) was 36.3 °C. The state after treatment ([1]; Patient 4, Nystatin from 8 Apr. 2021, 3×2 tablets daily, state on 14 Apr. 2021) was ““post-covid” asymptomatic state”, the “effectiveness against SARS-CoV in vivo” value (SARS-CoV) was “not proved to be effective” and the “toxicity of nystatin itself to the cultured cells” value (VERO E6 cell line) was “toxic to the cultured cells”. The “microscopic image of tissue culture at the end of the incubation period” value ([2]; CMC-1 virus treated with 60 μg/ml nystatin, FIG. 4C) was “both cells with lysed and intact morphology can be seen” and the IC50 ([2]; Severe acute respiratory syndrome coronavirus 2, Vero C1008) was 60 µg/mL (≈ 64.8 µM).
